Values quoted from earlier work as cited in patent US7629004B2, “Composition and process for removing and preventing mildew and fungal growth” (priority 2005, dated 2009).

Tested on: fungi
Conditions: fungal contamination of aircraft interior surfaces

## CC(C)O [isopropyl alcohol]
  Effectiveness of approved military cleaning procedure: ineffective
